According to publication PMC5218480 (PLoS ONE, 2017):

System: MV-4-11 cells
Assay: Gene expression microarray analysis (Affymetrix PrimeView) and GSEA
Format: cell-based, human
Set-up: RFU PODN (11730768_x_at) / Fold change /veh PODN (11730768_x_at) / RFU LINC00158 (11744669_a_at) / Fold change /veh LINC00158 (11744669_a_at) / RFU DUSP10 (11751237_a_at) / Fold change /veh DUSP10 (11751237_a_at) / RFU ID3 (11757404_x_at) / Fold change /veh ID3 (11757404_x_at) / RFU PLEKHG5 (11737974_s_at) / Fold change /veh PLEKHG5 (11737974_s_at) / RFU LRRC4B (11730491_at) / Fold change /veh LRRC4B (11730491_at) / RFU GIMAP4 (11747438_a_at) / Fold change /veh GIMAP4 (11747438_a_at) / RFU KRT8 (11758183_x_at) / Fold change /veh KRT8 (11758183_x_at) / RFU CNN1 (11734310_a_at) / Fold change /veh CNN1 (11734310_a_at) / RFU VPS37D (11726825_at) / Fold change /veh VPS37D (11726825_at) / RFU C10orf10 (11716522_x_at) / Fold change /veh C10orf10 (11716522_x_at) / RFU KIR2DL2 /// KIR2DL4 /// KIR2DL5A /// KIR2DL5B /// KIR2DS1 /// KIR2DS2 /// KIR2DS3 /// KIR2DS4 /// KIR3DL3 /// KIR3DL3 /// KIR3DS1 (11738374_at) / Fold change /veh KIR2DL2 /// KIR2DL4 /// KIR2DL5A /// KIR2DL5B /// KIR2DS1 /// KIR2DS2 /// KIR2DS3 /// KIR2DS4 /// KIR3DL3 /// KIR3DL3 /// KIR3DS1 (11738374_at) / RFU C1QL1 (11718748_at) / Fold change /veh C1QL1 (11718748_at) / RFU TMPRSS4 (11747572_a_at) / Fold change /veh TMPRSS4 (11747572_a_at) / RFU HAMP (11756126_x_at) / Fold change /veh HAMP (11756126_x_at) / RFU RNFT2 (11725882_a_at) / Fold change /veh RNFT2 (11725882_a_at) / RFU NR4A2 (11747474_a_at) / Fold change /veh NR4A2 (11747474_a_at) / RFU ABCC12 (11746883_a_at) / Fold change /veh ABCC12 (11746883_a_at) / RFU TMEM136 (11760407_x_at) / Fold change /veh TMEM136 (11760407_x_at) / RFU CLDN22 /// WWC2 (11732394_at) / Fold change /veh CLDN22 /// WWC2 (11732394_at) / RFU HLA-DPB1 (11760878_x_at) / Fold change /veh HLA-DPB1 (11760878_x_at) / RFU SPINT1 (11716480_a_at) / Fold change /veh SPINT1 (11716480_a_at) / RFU GAP43 (11754022_s_at) / Fold change /veh GAP43 (11754022_s_at) / RFU A4GNT (11735810_at) / Fold change /veh A4GNT (11735810_at) / RFU PRB3 (11715151_x_at) / Fold change /veh PRB3 (11715151_x_at) / RFU TUBB4B (11761932_at) / Fold change /veh TUBB4B (11761932_at) / RFU CAPN14 (11732068_a_at) / Fold change /veh CAPN14 (11732068_a_at) / RFU TMCC2 (11721928_a_at) / Fold change /veh TMCC2 (11721928_a_at) / RFU IRGQ (11745062_a_at) / Fold change /veh IRGQ (11745062_a_at) / RFU FAM174B (11720279_a_at) / Fold change /veh FAM174B (11720279_a_at) / RFU TMPRSS4 (11748680_a_at) / Fold change /veh TMPRSS4 (11748680_a_at) / RFU FAM212B (11763350_a_at) / Fold change /veh FAM212B (11763350_a_at) / RFU PLEKHG5 (11743358_a_at) / Fold change /veh PLEKHG5 (11743358_a_at) / RFU ZSCAN30 (11745921_a_at) / Fold change /veh ZSCAN30 (11745921_a_at) / RFU CMKLR1 (11741424_a_at) / Fold change /veh CMKLR1 (11741424_a_at) / RFU LOC101060620 /// MAPK8IP1 (11723275_at) / Fold change /veh LOC101060620 /// MAPK8IP1 (11723275_at) / RFU SPTSSB (11747773_x_at) / Fold change /veh SPTSSB (11747773_x_at) / RFU PRSS12 (11739890_at) / Fold change /veh PRSS12 (11739890_at) / RFU BIN1 (11741810_x_at) / Fold change /veh BIN1 (11741810_x_at) / RFU WNT11 (11732464_a_at) / Fold change /veh WNT11 (11732464_a_at) / RFU C10orf10 (11716521_a_at) / Fold change /veh C10orf10 (11716521_a_at) / RFU C5orf56 (11738089_at) / Fold change /veh C5orf56 (11738089_at) / RFU CYB561 (11721691_x_at) / Fold change /veh CYB561 (11721691_x_at) / RFU ANKRD19P (11752326_a_at) / Fold change /veh ANKRD19P (11752326_a_at) / RFU OR2T12 /// OR2T33 /// OR2T8 (11738714_s_at) / Fold change /veh OR2T12 /// OR2T33 /// OR2T8 (11738714_s_at) / RFU VCAN (11748164_a_at) / Fold change /veh VCAN (11748164_a_at) / RFU JSRP1 (11732532_at) / Fold change /veh JSRP1 (11732532_at) / RFU KRTAP10-11 (11738290_x_at) / Fold change /veh KRTAP10-11 (11738290_x_at) / RFU MYO3A (11730013_a_at) / Fold change /veh MYO3A (11730013_a_at) / RFU EBF3 (11725865_a_at) / Fold change /veh EBF3 (11725865_a_at) / RFU CAMK2N1 (11719241_x_at) / Fold change /veh CAMK2N1 (11719241_x_at) / RFU C5orf56 (11738088_a_at) / Fold change /veh C5orf56 (11738088_a_at) / RFU OLFML3 (11715873_a_at) / Fold change /veh OLFML3 (11715873_a_at) / RFU LOC100653217 /// NTM (11731650_a_at) / Fold change /veh LOC100653217 /// NTM (11731650_a_at) / RFU MAPK11 (11762145_a_at) / Fold change /veh MAPK11 (11762145_a_at) / RFU FIZ1 (11724087_x_at) / Fold change /veh FIZ1 (11724087_x_at) / RFU OASL (11726364_x_at) / Fold change /veh OASL (11726364_x_at) / RFU SOX15 (11748057_x_at) / Fold change /veh SOX15 (11748057_x_at) / RFU CD79A (11719716_a_at) / Fold change /veh CD79A (11719716_a_at) / RFU HIST1H1D (11736915_at) / Fold change /veh HIST1H1D (11736915_at) / RFU CASKIN2 (11723855_a_at) / Fold change /veh CASKIN2 (11723855_a_at) / RFU LOC730098 (11760151_x_at) / Fold change /veh LOC730098 (11760151_x_at) / RFU OR4N2 (11742367_at) / Fold change /veh OR4N2 (11742367_at) / RFU PRRT2 (11749266_a_at) / Fold change /veh PRRT2 (11749266_a_at) / RFU SNX32 (11753110_a_at) / Fold change /veh SNX32 (11753110_a_at) / RFU CDHR5 (11726645_a_at) / Fold change /veh CDHR5 (11726645_a_at) / RFU RCAN1 (11760418_a_at) / Fold change /veh RCAN1 (11760418_a_at) / RFU FAM167A (11723789_a_at) / Fold change /veh FAM167A (11723789_a_at) / RFU FAM26E (11764081_at) / Fold change /veh FAM26E (11764081_at) / RFU ISYNA1 (11749810_s_at) / Fold change /veh ISYNA1 (11749810_s_at) / RFU ACY1 (11761880_at) / Fold change /veh ACY1 (11761880_at) / RFU 11764098_at / Fold change /veh 11764098_at / RFU SAMD14 (11745864_x_at) / Fold change /veh SAMD14 (11745864_x_at) / RFU NPB (11741838_a_at) / Fold change /veh NPB (11741838_a_at) / RFU TMPRSS6 (11731388_a_at) / Fold change /veh TMPRSS6 (11731388_a_at) / RFU KRTAP10-2 (11738614_at) / Fold change /veh KRTAP10-2 (11738614_at) / RFU ARHGAP8 /// PRR5-ARHGAP8 (11727945_x_at) / Fold change /veh ARHGAP8 /// PRR5-ARHGAP8 (11727945_x_at) / RFU KRTAP5-7 /// NADSYN1 (11734609_at) / Fold change /veh KRTAP5-7 /// NADSYN1 (11734609_at) / RFU RASL12 (11751679_a_at) / Fold change /veh RASL12 (11751679_a_at) / RFU CDKN2B (11736163_a_at) / Fold change /veh CDKN2B (11736163_a_at) / RFU PRF1 (11729649_at) / Fold change /veh PRF1 (11729649_at) / RFU, ZNF638 /// ZNF638-IT1 / Fold change vs veh, ZNF638 /// ZNF638-IT1 / RFU, PANK3 / Fold change vs veh, PANK3 / RFU, SH3YL1 / Fold change vs veh, SH3YL1 / RFU, ZEB2 / Fold change vs veh, ZEB2 / RFU, NRIP1 / Fold change vs veh, NRIP1 / RFU, PTTG1IP / Fold change vs veh, PTTG1IP / RFU, CAPN2 / Fold change vs veh, CAPN2 / RFU, MED14 / Fold change vs veh, MED14 / RFU, SNORA58 / Fold change vs veh, SNORA58 / RFU, C1orf63 / Fold change vs veh, C1orf63 / RFU, LRRFIP1 / Fold change vs veh, LRRFIP1 / RFU, NDUFAF7 / Fold change vs veh, NDUFAF7 / RFU, SLC12A2 / Fold change vs veh, SLC12A2 / RFU, IBTK / Fold change vs veh, IBTK / RFU, ESF1 / Fold change vs veh, ESF1 / Fold change vs veh, TMEM50B / RFU, TAOK1 / Fold change vs veh, TAOK1 / RFU, ACBD3 / Fold change vs veh, ACBD3 / RFU, TMA16 / Fold change vs veh, TMA16 / RFU, RWDD3 / Fold change vs veh, RWDD3 / RFU, BCAT1 / Fold change vs veh, BCAT1 / RFU, EDEM3 / Fold change vs veh, EDEM3 / RFU, TMEM33 / Fold change vs veh, TMEM33 / RFU, WDR75 / Fold change vs veh, WDR75 / RFU, AHCTF1 / Fold change vs veh, AHCTF1 / RFU, TFRC / Fold change vs veh, TFRC / RFU, ZDHHC17 / Fold change vs veh, ZDHHC17 / RFU, NOM1 / Fold change vs veh, NOM1 / RFU, ARL8B / Fold change vs veh, ARL8B / RFU, ZBTB11 / Fold change vs veh, ZBTB11 / RFU, TAMM41 / Fold change vs veh, TAMM41 / RFU, KIAA1704 /// LOC100996395 / Fold change vs veh, KIAA1704 /// LOC100996395 / RFU, ING1 / Fold change vs veh, ING1 / RFU, TRMT61B / Fold change vs veh, TRMT61B / RFU, FUBP3 / Fold change vs veh, FUBP3 / RFU, TP53 / Fold change vs veh, TP53 / RFU, TNKS2 / Fold change vs veh, TNKS2 / RFU, ZFP14 / Fold change vs veh, ZFP14 / RFU, ACTR2 / Fold change vs veh, ACTR2 / RFU, PPP3R1 / Fold change vs veh, PPP3R1 / RFU, PIK3R1 / Fold change vs veh, PIK3R1 / RFU, HNRNPA1 / Fold change vs veh, HNRNPA1 / RFU, RNF170 / Fold change vs veh, RNF170 / RFU, ZNF28 / Fold change vs veh, ZNF28 / RFU, RNGTT / Fold change vs veh, RNGTT / RFU, OGT / Fold change vs veh, OGT / RFU, BRD1 / Fold change vs veh, BRD1 / RFU, MARS / Fold change vs veh, MARS / RFU, ZNF655 / Fold change vs veh, ZNF655 / RFU, FAHD1 / Fold change vs veh, FAHD1 / RFU, BDP1 / Fold change vs veh, BDP1 / RFU, LRRCC1 / Fold change vs veh, LRRCC1 / RFU, ARID1A / Fold change vs veh, ARID1A / RFU, ZNF146 / Fold change vs veh, ZNF146 / RFU, ZNF330 / Fold change vs veh, ZNF330 / RFU, GPN3 / Fold change vs veh, GPN3 / RFU, C9orf123 / Fold change vs veh, C9orf123 / RFU, N4BP2L2 / Fold change vs veh, N4BP2L2 / RFU, ARFIP1 / Fold change vs veh, ARFIP1 / RFU, FAM179B / Fold change vs veh, FAM179B / RFU, BCL10 / Fold change vs veh, BCL10 / RFU, UHRF1BP1L / Fold change vs veh, UHRF1BP1L / RFU, BET1 / Fold change vs veh, BET1 / RFU, CNOT2 / Fold change vs veh, CNOT2 / RFU, ZNF268 / Fold change vs veh, ZNF268 / Fold change vs veh, ZNF507 / RFU, DGCR2 / Fold change vs veh, DGCR2 / RFU, WDSUB1 / Fold change vs veh, WDSUB1 / Fold change vs veh, HSP90B1 /// MIR3652 / RFU, ADSS / Fold change vs veh, ADSS / RFU, GK / Fold change vs veh, GK / RFU, ZNF148 / Fold change vs veh, ZNF148 / RFU, TAF9 / Fold change vs veh, TAF9 / RFU, SLC1A5 / Fold change vs veh, SLC1A5 / RFU, SLMO2 / Fold change vs veh, SLMO2 / RFU, ABCC4 / Fold change vs veh, ABCC4 / RFU, LOC101060439 /// RAP1B / Fold change vs veh, LOC101060439 /// RAP1B / RFU, RFX7 / Fold change vs veh, RFX7 / RFU, GTPBP10 / Fold change vs veh, GTPBP10 / RFU, CNEP1R1 / Fold change vs veh, CNEP1R1 / RFU, BIVM-ERCC5 /// ERCC5 / Fold change vs veh, BIVM-ERCC5 /// ERCC5 / RFU, ILF3 / Fold change vs veh, ILF3 / RFU 11762660_at / Fold change /veh 11762660_at / RFU VCAN (11757783_s_at) / Fold change /veh VCAN (11757783_s_at) / RFU DDX43 (11728927_at) / Fold change /veh DDX43 (11728927_at) / RFU KRT8 (11758188_x_at) / Fold change /veh KRT8 (11758188_x_at) / RFU NKD1 (11759106_at) / Fold change /veh NKD1 (11759106_at) / RFU SRD5A1 (11742802_a_at) / Fold change /veh SRD5A1 (11742802_a_at) / RFU TPSAB1 /// TPSB2 (11721975_s_at) / Fold change /veh TPSAB1 /// TPSB2 (11721975_s_at) / RFU GSTM3 (11746129_a_at) / Fold change /veh GSTM3 (11746129_a_at) / RFU IL23R (11737362_x_at) / Fold change /veh IL23R (11737362_x_at) / RFU TMEM51 (11727254_a_at) / Fold change /veh TMEM51 (11727254_a_at) / RFU PIWIL2 (11732686_x_at) / Fold change /veh PIWIL2 (11732686_x_at) / RFU ORM1 (11744905_x_at) / Fold change /veh ORM1 (11744905_x_at) / RFU CCDC152 (11743942_at) / Fold change /veh CCDC152 (11743942_at) / RFU ECM1 (11717891_a_at) / Fold change /veh ECM1 (11717891_a_at) / RFU IL23R (11748794_a_at) / Fold change /veh IL23R (11748794_a_at) / RFU TNFAIP8L3 (11732012_x_at) / Fold change /veh TNFAIP8L3 (11732012_x_at) / RFU MBOAT4 (11741988_at) / Fold change /veh MBOAT4 (11741988_at) / RFU 11764193_at / Fold change /veh 11764193_at / RFU TMEM53 (11763286_at) / Fold change /veh TMEM53 (11763286_at) / RFU MAGEB2 (11727129_at) / Fold change /veh MAGEB2 (11727129_at) / RFU TMEM200A (11744735_a_at) / Fold change /veh TMEM200A (11744735_a_at) / RFU CCDC152 (11751479_a_at) / Fold change /veh CCDC152 (11751479_a_at) / RFU FAM211A (11726209_a_at) / Fold change /veh FAM211A (11726209_a_at) / RFU RGS16 (11746705_a_at) / Fold change /veh RGS16 (11746705_a_at) / RFU VCAN (11755009_s_at) / Fold change /veh VCAN (11755009_s_at) / RFU RHOB (11743442_s_at) / Fold change /veh RHOB (11743442_s_at) / RFU RGS16 (11720943_a_at) / Fold change /veh RGS16 (11720943_a_at) / RFU RGS16 (11720944_at) / Fold change /veh RGS16 (11720944_at) / RFU, VPS4B / Fold change vs veh, VPS4B / RFU, CREB1 / Fold change vs veh, CREB1 / RFU, DNAJC13 / Fold change vs veh, DNAJC13 / RFU, GNAQ / Fold change vs veh, GNAQ / RFU, CDK5R1 / Fold change vs veh, CDK5R1 / RFU, ZRANB3 / Fold change vs veh, ZRANB3 / RFU, CUL4A / Fold change vs veh, CUL4A / RFU, CCNY / Fold change vs veh, CCNY / RFU, UFL1 / Fold change vs veh, UFL1 / RFU, COG3 / Fold change vs veh, COG3 / RFU, DIAPH2 / Fold change vs veh, DIAPH2 / RFU, SKA2 / Fold change vs veh, SKA2 / RFU, AFF3 / Fold change vs veh, AFF3 / RFU, LMF1 / Fold change vs veh, LMF1 / RFU, IPO11 / Fold change vs veh, IPO11 / RFU, DFFB / Fold change vs veh, DFFB / RFU, FOXP1 / Fold change vs veh, FOXP1 / RFU, CARD8 / Fold change vs veh, CARD8 / RFU, STRN3 / Fold change vs veh, STRN3 / RFU, ADK / Fold change vs veh, ADK / RFU, RASSF2 / Fold change vs veh, RASSF2 / RFU, WIPF1 / Fold change vs veh, WIPF1 / RFU, LARP1B / Fold change vs veh, LARP1B / RFU, RASA1 / Fold change vs veh, RASA1 / RFU, RB1 / Fold change vs veh, RB1 / RFU, PPFIA1 / Fold change vs veh, PPFIA1 / RFU, MAT2A / Fold change vs veh, MAT2A / RFU, CCT5 / Fold change vs veh, CCT5 / RFU, WDR92 / Fold change vs veh, WDR92 / RFU, CUX1 / Fold change vs veh, CUX1 / RFU, TTC7A / Fold change vs veh, TTC7A / RFU, TMEM135 / Fold change vs veh, TMEM135 / RFU, DEPTOR / Fold change vs veh, DEPTOR / RFU, CPM / Fold change vs veh, CPM / RFU, DNAJB6 / Fold change vs veh, DNAJB6 / RFU, CACNA2D3 / Fold change vs veh, CACNA2D3 / RFU, DTX4 / Fold change vs veh, DTX4 / RFU, TFCP2 / Fold change vs veh, TFCP2 / RFU, GMCL1 /// GMCL1P1 / Fold change vs veh, GMCL1 /// GMCL1P1 / RFU, AEBP2 / Fold change vs veh, AEBP2 / RFU, SNHG1 /// SNORD22 /// SNORD25 /// SNORD26 /// SNORD27 /// SNORD28 /// SNORD29 /// SNORD31 / Fold change vs veh, SNHG1 /// SNORD22 /// SNORD25 /// SNORD26 /// SNORD27 /// SNORD28 /// SNORD29 /// SNORD31 / Fold change (Aza/veh), C12orf56 (ProbeSet 11735607_a_at) / Fold change (ACY-1035/veh), C12orf56 (ProbeSet 11735607_a_at) / Fold change (Aza/veh), FGFR1OP (ProbeSet 11751329_s_at) / Fold change (ACY-1035/veh), FGFR1OP (ProbeSet 11751329_s_at) / Fold change (Aza/veh), VPS36 (ProbeSet 11739960_a_at) / Fold change (ACY-1035/veh), VPS36 (ProbeSet 11739960_a_at) / RFU SYPL1 (11715823_x_at) / Fold change /veh SYPL1 (11715823_x_at) / RFU IGFBP7 (11715501_s_at) / Fold change /veh IGFBP7 (11715501_s_at) / RFU REEP3 (11722064_at) / Fold change /veh REEP3 (11722064_at) / RFU IGLL1 (11728026_x_at) / Fold change /veh IGLL1 (11728026_x_at): dose or concentration left out as unconfirmed
Conditions: ProbeSet 11725787_a_at; LIST B

SMILES: Nc1ccc(-c2cccs2)cc1NC(=O)c1ccc2c(c1)cc(C1CC1)n2CCN1CCOCC1 [ACY-1035]
- RFU, TMA16: 138.28 RFU
